Source: ChEMBL document CHEMBL1131808, “Potent immunosuppressive C32-O-arylethyl ether derivatives of ascomycin with reduced toxicity” (Bioorg Med Chem Lett, 1999)
Calls of active or inactive are those of the source. No cut-off for these calls is given here.

Experiments:
[1] = biological target: Peptidyl-prolyl cis-trans isomerase FKBP1A (Homo sapiens, UniProt P62942); assay: Effective concentration against FK506 binding protein 12 using [3H]-dihydro FK-506
Mus musculus [2] = assay: In vivo immunosuppression in murine models by splenic T-cell proliferation assay after intravenous administration; format: functional
Mus musculus [3] = assay: In vivo immunosuppression in murine models by splenic T-cell proliferation assay after peroral administration; format: functional; conditions: po
Mus musculus [4] = organism: Mus musculus; assay: The compound was tested for its inhibitory activity against T-cell proliferation using murine splenic T-cells; format: functional
Rattus norvegicus [5] = assay: Cytotoxicity was determined by hypothermia induction after intravenous administration in rat; format: functional
Rattus norvegicus [6] = assay: The compound was tested for % reduction of nephrotoxicity in rat after intravenous administration at dose 5 mg/kg; format: functional
[7] = Ratio of hypothermia (ED50) by Murine (ED50) in vivo; format: functional
Rattus norvegicus [8] = assay: The compound was tested for % reduction of nephrotoxicity in rat after intravenous administration at dose 20 mg/kg; NE denotes no effect; format: functional, organism-based; set-up: dose 20 mg/kg
Rattus norvegicus [9] = assay: Tested for nephrotoxicity in Dawley rats and measured for blood urea nitrogen levels after intravenous administration at dose 5 mg/kg; format: functional
Rattus norvegicus [10] = assay: Tested for nephrotoxicity in Dawley rats and measured for plasma drug level after intravenous administration at dose 10 mg/kg; format: functional
Rattus norvegicus [11] = assay: Tested for nephrotoxicity in Dawley rats and measured for plasma drug level after intravenous administration at dose 2.5 mg/kg; format: functional
Rattus norvegicus [12] = assay: Tested for nephrotoxicity in Dawley rats and measured for plasma drug level after intravenous administration at dose 5 mg/kg; format: functional
Rattus norvegicus [13] = assay: Tested for nephrotoxicity in Dawley rats and measured for blood urea nitrogen levels after intravenous administration at dose 10 mg/kg; format: functional
Rattus norvegicus [14] = assay: Tested for nephrotoxicity in Dawley rats and measured for blood urea nitrogen levels after intravenous administration at dose 2.5 mg/kg; format: functional
Rattus norvegicus [15] = assay: The compound was tested for % reduction of nephrotoxicity in rat after intravenous administration at dose 1.7 mg/kg; format: functional
Rattus norvegicus [16] = assay: The compound was tested for % reduction of nephrotoxicity in rat after intravenous administration at dose 10 mg/kg; format: functional
Rattus norvegicus [17] = assay: The compound was tested for % reduction of nephrotoxicity in rat after intravenous administration at dose 20 mg/kg; format: functional
Rattus norvegicus [18] = assay: Tested for nephrotoxicity in Dawley rats and measured for plasma drug level after intravenous administration at dose 20 mg/kg; format: functional
Rattus norvegicus [19] = assay: Tested for nephrotoxicity in Dawley rats and measured for plasma drug level after intravenous administration at dose 40 mg/kg; format: functional
Rattus norvegicus [20] = assay: Tested for nephrotoxicity in Dawley rats and measured for blood urea nitrogen levels after intravenous administration at dose 20 mg/kg; format: functional
Rattus norvegicus [21] = assay: Tested for nephrotoxicity in Dawley rats and measured for blood urea nitrogen levels after intravenous administration at dose 40 mg/kg; format: functional

Peptidyl-prolyl cis-trans isomerase FKBP1A, sequence (P62942 whole entry): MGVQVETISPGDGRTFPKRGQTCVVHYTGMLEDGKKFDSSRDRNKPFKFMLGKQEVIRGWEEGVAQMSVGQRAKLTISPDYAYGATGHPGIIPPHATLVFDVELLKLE

Structure (SMILES)	EC50 [1] [nM]	ED50 (Mus musculus [2]) [mg/kg]	ED50 (Mus musculus [3]) [mg/kg]	IC50 (Mus musculus [4]) [nM]	ED50 (Rattus norvegicus [5]) [mg/kg]	Therapeutic index [7]	further results
CC[C@@H]1/C=C(\C)C[C@H](C)C[C@H](OC)[C@H]2O[C@@](O)(C(=O)C(=O)N3CCCC[C@H]3C(=O)O[C@H](/C(C)=C/C3CC[C@@H](OC[C@H](O)c4cccc(C(F)(F)F)c4)[C@H](OC)C3)[C@H](C)[C@H](O)CC1=O)[C@H](C)C[C@@H]2OC (stereo partly specified)	45	0.29	5	0.38	13.7	47	Reduction (Rattus norvegicus [6]): 51%
CC[C@@H]1/C=C(\C)C[C@H](C)C[C@H](OC)[C@H]2O[C@@](O)(C(=O)C(=O)N3CCCC[C@H]3C(=O)O[C@H](/C(C)=C/C3CC[C@@H](OC[C@@H](O)c4cccc(C(F)(F)F)c4)[C@H](OC)C3)[C@H](C)[C@H](O)CC1=O)[C@H](C)C[C@@H]2OC (stereo partly specified)	45	0.31	3.7	0.38	12.8	41	Reduction (Rattus norvegicus [8]): inactive
C=CC[C@@H]1/C=C(\C)C[C@H](C)C[C@H](OC)[C@H]2O[C@@](O)(C(=O)C(=O)N3CCCC[C@H]3C(=O)O[C@H](/C(C)=C/[C@@H]3CC[C@@H](O)[C@H](OC)C3)[C@H](C)C(O)CC1=O)[C@H](C)C[C@@H]2OC (single isomer, unassigned) [TACROLIMUS ANHYDROUS]		0.22	2.6	0.2	3.7		Nephrotoxicity (Rattus norvegicus [9]): 21 mg/dL; Nephrotoxicity (Rattus norvegicus [10]): 611 ng/mL; Nephrotoxicity (Rattus norvegicus [11]): 13 ng/mL; Nephrotoxicity (Rattus norvegicus [12]): 45 ng/mL; Nephrotoxicity (Rattus norvegicus [13]): 26 mg/dL; Nephrotoxicity (Rattus norvegicus [14]): 18.1 mg/dL; Reduction (Rattus norvegicus [15]): 45%
CC[C@@H]1/C=C(\C)C[C@H](C)C[C@H](OC)[C@H]2O[C@@](O)(C(=O)C(=O)N3CCCC[C@H]3C(=O)O[C@H](/C(C)=C/C3CC[C@@H](OC[C@H](O)c4cc(C)cc(C)c4)[C@H](OC)C3)[C@H](C)[C@H](O)CC1=O)[C@H](C)C[C@@H]2OC (stereo partly specified)	9	0.49	4.8	0.34	7.25	15	Reduction (Rattus norvegicus [16]): 48%
CC[C@@H]1/C=C(\C)C[C@H](C)C[C@H](OC)[C@H]2O[C@@](O)(C(=O)C(=O)N3CCCC[C@H]3C(=O)O[C@H](/C(C)=C/C3CC[C@@H](OC[C@H](O)c4ccc5ccccc5c4)[C@H](OC)C3)[C@H](C)[C@H](O)CC1=O)[C@H](C)C[C@@H]2OC (stereo partly specified)	18	0.38	3.4	0.34	14.2	37	Reduction (Rattus norvegicus [17]): 40%
CC[C@@H]1/C=C(\C)C[C@H](C)C[C@H](OC)[C@H]2O[C@@](O)(C(=O)C(=O)N3CCCC[C@H]3C(=O)O[C@H](/C(C)=C/C3CC[C@@H](OC[C@@H](O)c4cc(C)cc(C)c4)[C@H](OC)C3)[C@H](C)[C@H](O)CC1=O)[C@H](C)C[C@@H]2OC (stereo partly specified)	7.5	0.45	4.5	0.23	10.3	23	Reduction (Rattus norvegicus [8]): inactive
CC[C@@H]1/C=C(\C)C[C@H](C)C[C@H](OC)[C@H]2O[C@@](O)(C(=O)C(=O)N3CCCC[C@H]3C(=O)O[C@H](/C(C)=C/C3CC[C@@H](OC[C@H](O)c4ccc(F)c(F)c4)[C@H](OC)C3)[C@H](C)[C@H](O)CC1=O)[C@H](C)C[C@@H]2OC (stereo partly specified)	13.6	0.19	3.9	0.11	13.7	72	Reduction (Rattus norvegicus [6]): 54%
CC[C@@H]1/C=C(\C)C[C@H](C)C[C@H](OC)[C@H]2O[C@@](O)(C(=O)C(=O)N3CCCC[C@H]3C(=O)O[C@H](/C(C)=C/C3CC[C@@H](OC[C@@H](O)c4ccc(F)c(F)c4)[C@H](OC)C3)[C@H](C)[C@H](O)CC1=O)[C@H](C)C[C@@H]2OC (stereo partly specified)	7.5	0.19	2.8	0.14	10	52	Reduction (Rattus norvegicus [16]): 44%
CC[C@@H]1/C=C(\C)C[C@H](C)C[C@H](OC)[C@H]2O[C@@](O)(C(=O)C(=O)N3CCCC[C@H]3C(=O)O[C@H](/C(C)=C/C3CC[C@@H](OC[C@H](O)c4cc5ccccc5s4)[C@H](OC)C3)[C@H](C)[C@H](O)CC1=O)[C@H](C)C[C@@H]2OC (stereo partly specified)	12	0.53	5.6	0.47			
CC[C@@H]1/C=C(\C)C[C@H](C)C[C@H](OC)[C@H]2O[C@@](O)(C(=O)C(=O)N3CCCC[C@H]3C(=O)O[C@H](/C(C)=C/C3CC[C@@H](OC[C@@H](O)c4cc5ccccc5s4)[C@H](OC)C3)[C@H](C)[C@H](O)CC1=O)[C@H](C)C[C@@H]2OC (stereo partly specified)	11.2	0.75	6.4	0.39	14.8	20	Reduction (Rattus norvegicus [6]): 32%
CC[C@@H]1/C=C(\C)C[C@H](C)C[C@H](OC)[C@H]2O[C@@](O)(C(=O)C(=O)N3CCCC[C@H]3C(=O)O[C@H](/C(C)=C/C3CC[C@@H](OC[C@@H](O)c4ccc5ccccc5c4)[C@H](OC)C3)[C@H](C)[C@H](O)CC1=O)[C@H](C)C[C@@H]2OC (stereo partly specified)	21.1	0.38	3.7	0.33	21.6	57	Nephrotoxicity (Rattus norvegicus [9]): 16.3 mg/dL; Nephrotoxicity (Rattus norvegicus [10]): 478 ng/mL; Nephrotoxicity (Rattus norvegicus [18]): 1897 ng/mL; Nephrotoxicity (Rattus norvegicus [19]): 3120 ng/mL; Nephrotoxicity (Rattus norvegicus [12]): 239 ng/mL; Nephrotoxicity (Rattus norvegicus [13]): 17.7 mg/dL; Nephrotoxicity (Rattus norvegicus [20]): 24.7 mg/dL; Nephrotoxicity (Rattus norvegicus [21]): 39.3 mg/dL; Reduction (Rattus norvegicus [17]): 41%
